Source: PMC12679848, “Sulphonamide derivatives with a triazine core as novel inducers of apoptosis and pyroptosis in glioblastoma multiforme cells” (Journal of Enzyme Inhibition and Medicinal Chemistry, 2025)

How the values were obtained:
[1] = test system: A172; assay: Reactive oxygen species, H2DCFDA/DAPI staining, A172; format: cell-based, human; details: A172, 30 min of compound treatment
Method: (§1) We performed double staining with DAPI, which stains nuclear genetic material (blue fluorescence), and H2DCFDA, an indicator of oxidative stress (green fluorescence). This study allowed us to evaluate the ability of MM118 and MM119 to activate reactive oxygen species (ROS) in A172 and U-87 MG glial cells.
(§2) The impact of the tested compounds on reactive oxygen species (ROS) production was assessed. Cells were seeded in 6-well culture plates at a density of 1 × 10^5 cells per well in 1 ml of medium. Following a 30-min treatment with the compounds, cells were washed with phosphate-buffered saline (PBS). Subsequently, double staining was performed using 20 µM 2′,7′-dichlorodihydrofluorescein diacetate (H2DCFDA) (obtained from Thermo Fisher Scientific, Eugene, OR, USA). This colourless reagent is hydrolysed by intracellular esterases and subsequently oxidised to the 2′,7′-dichlorofluorescein (DCF), and 10 µg/mL of 4′,6-diamidino-2-phenylindole (DAPI) (Sigma-Aldrich, St. Louis, MO, USA) was used to stain nuclear DNA. Fluorescence was observed using a Nikon ECLIPSE Ti fluorescence microscope (Nikon, Tokyo, Japan). ImageJ software (Bethesda, MD, USA) was used for data analysis, with DCF fluorescence intensity measured relative to the control. A minimum of 100 cells per sample were analysed.

[2] = test system: U-87 MG; assay: Reactive oxygen species, H2DCFDA/DAPI staining, U-87 MG; format: cell-based, human; details: 30 min of compound treatment
Method: as §1, §2

For `CCC(CO)NS(=O)(=O)c1ccc(-n2nc(C)c3nc4nnnn4nc32)cc1` (stereo in doubt) [MM118, N-(R)-(1-hydroxy-but-2-yl)-4-[7-methyl-5H-pyrazolo[4,3-e]tetrazolo[1,5-b][1]^,[2]^,[4]triazin-5-yl)]benzenesulfonamide], the “ROS, mean green (DCF) fluorescence” value [1] was “increase in mean green fluorescence” and the “ROS, mean green (DCF) fluorescence” value [2] was “effectively induce oxidative stress”.
`CCC(CO)NS(=O)(=O)c1ccc(-n2nc(C)c3nc4nnnn4nc32)cc1` (stereo in doubt) [MM119, N-(S)-(1-hydroxy-but-2-yl)-4-[7-methyl-5H-pyrazolo[4,3-e]tetrazolo[1,5-b][1]^,[2]^,[4]triazin-5-yl)]benzenesulfonamide] was tested, and the “ROS, mean green (DCF) fluorescence” value [1] was “increase in mean green fluorescence” and the “ROS, mean green (DCF) fluorescence” value [2] was “effectively induce oxidative stress”.
